ChEMBL document CHEMBL2390918, “Cinnamides as selective small-molecule inhibitors of a cellular model of breast cancer stem cells” (Bioorg Med Chem Lett, 2013)

Legend:
[1] = molecular target: Gamma-aminobutyric acid type B receptor subunit 1 (Homo sapiens) (UniProt Q9UBS5); assay: Displacement of [3H]CGP54626 from human recombinant GABAB1A receptor expressed in CHO cells at 10 uM after 3 hrs relative to control; format: cell-based
[2] = Displacement of [3H]alpha, beta-methylene-ATP from purinergic P2X receptor in New Zealand albino rabbit urinary bladder after 30 mins; design: species or system Oryctolagus cuniculus
[3] = organism: Oryctolagus cuniculus; assay: Displacement of [3H]alpha, beta-methylene-ATP from purinergic P2X receptor in New Zealand albino rabbit urinary bladder at 10 uM after 30 mins relative to control
[4] = molecular target: Glutamate NMDA receptor; assay: Displacement of [3H]MDL105519 from NMDA receptor glycine binding site in Wistar rat cerebral cortex after 30 mins; format: tissue-based
[5] = molecular target: Glutamate NMDA receptor (Rattus norvegicus) (UniProt P35439+Q00959+Q00960+Q00961+Q62645+Q8VHN2+Q9R1M7); assay: Displacement of [3H]MDL105519 from NMDA receptor glycine binding site in Wistar rat cerebral cortex at 10 uM after 30 mins relative to control; format: tissue-based
[6] = molecular target: Cysteinyl leukotriene receptor 1 (Homo sapiens) (UniProt Q9Y271); settings: CHO-K1, 10 uM
Sequence of Cysteinyl leukotriene receptor 1 (Homo sapiens) (Q9Y271 whole entry): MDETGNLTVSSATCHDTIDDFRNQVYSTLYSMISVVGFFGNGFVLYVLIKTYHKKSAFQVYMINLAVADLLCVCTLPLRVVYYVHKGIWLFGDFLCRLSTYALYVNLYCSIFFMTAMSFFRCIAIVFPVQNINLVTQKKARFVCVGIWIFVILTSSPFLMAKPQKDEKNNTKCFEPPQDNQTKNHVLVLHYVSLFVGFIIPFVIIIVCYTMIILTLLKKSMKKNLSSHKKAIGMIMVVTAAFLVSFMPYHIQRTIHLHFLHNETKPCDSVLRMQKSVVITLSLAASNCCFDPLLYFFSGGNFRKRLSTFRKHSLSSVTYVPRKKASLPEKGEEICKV

[7] = Selectivity ratio of EC50 for human HMLE cells expressing shRNA and GFP to EC50 for human CSC-like HMLE cells expressing shRNA and epithelial cadherin; format: ADME, cell-based; settings: read-out: Ratio EC50
[8] = Cytotoxicity against human HMLE cells expressing shRNA and GFP after 70 to 74 hrs by Cell Titer Glo assay; format: cell-based
[9] = Cytotoxicity against human CSC-like HMLE cells expressing shRNA and epithelial cadherin after 70 to 74 hrs by Cell Titer Glo assay; format: functional, cell-based
[10] = molecular target: 5-hydroxytryptamine receptor 3A (Homo sapiens) (UniProt P46098); settings: HEK293, 10 uM
Sequence of 5-hydroxytryptamine receptor 3A (Homo sapiens) (P46098 whole entry): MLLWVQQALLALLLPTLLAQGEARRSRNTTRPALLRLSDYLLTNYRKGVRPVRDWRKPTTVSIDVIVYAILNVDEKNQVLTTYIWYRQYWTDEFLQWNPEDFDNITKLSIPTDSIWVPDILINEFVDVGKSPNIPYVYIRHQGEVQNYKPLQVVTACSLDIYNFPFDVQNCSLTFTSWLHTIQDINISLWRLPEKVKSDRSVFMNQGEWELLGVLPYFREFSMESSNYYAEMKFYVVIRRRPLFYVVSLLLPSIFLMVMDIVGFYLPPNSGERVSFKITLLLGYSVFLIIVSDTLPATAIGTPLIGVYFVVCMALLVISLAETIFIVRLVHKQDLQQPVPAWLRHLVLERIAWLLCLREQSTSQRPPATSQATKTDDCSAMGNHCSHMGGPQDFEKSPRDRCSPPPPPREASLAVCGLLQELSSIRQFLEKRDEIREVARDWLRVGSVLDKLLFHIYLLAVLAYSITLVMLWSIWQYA

[11] = Selectivity ratio of EC50 for human CSC-like HMLE cells expressing shRNA and epithelial cadherin to EC50 for human HMLE cells expressing shRNA and GFP; format: ADME, cell-based; settings: read-out: Ratio EC50
[12] = organism: Rattus norvegicus; assay: Displacement of [125I]Triiodothyronine from thyroid hormone receptor in Wistar rat liver at 10 uM after 18 hrs relative to control
[13] = Displacement of [3H]PDBu from phorbol ester receptor in ICR mouse brain after 60 mins
[14] = organism: Mus musculus; assay: Displacement of [3H]PDBu from phorbol ester receptor in ICR mouse brain at 10 uM after 60 mins relative to control
[15] = molecular target: Platelet-activating factor receptor (Homo sapiens) (UniProt P25105); assay: Displacement of [3H]PAF from platelet activating factor receptor in human platelets at 10 uM after 3 hrs relative to control
Sequence of Platelet-activating factor receptor (Homo sapiens) (P25105 whole entry): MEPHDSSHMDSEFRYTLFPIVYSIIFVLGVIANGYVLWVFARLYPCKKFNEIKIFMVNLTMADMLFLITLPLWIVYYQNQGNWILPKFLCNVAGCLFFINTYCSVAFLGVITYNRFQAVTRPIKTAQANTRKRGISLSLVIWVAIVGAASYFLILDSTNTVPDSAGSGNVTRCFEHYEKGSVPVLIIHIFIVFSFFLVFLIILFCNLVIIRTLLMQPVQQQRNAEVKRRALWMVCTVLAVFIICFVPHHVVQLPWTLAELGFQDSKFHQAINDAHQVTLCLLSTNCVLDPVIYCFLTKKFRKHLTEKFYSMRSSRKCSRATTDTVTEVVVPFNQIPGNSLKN

[16] = molecular target: Sodium-dependent dopamine transporter (Homo sapiens) (UniProt Q01959); settings: CHO-K1, 10 uM
Sequence of Sodium-dependent dopamine transporter (Homo sapiens) (Q01959 whole entry): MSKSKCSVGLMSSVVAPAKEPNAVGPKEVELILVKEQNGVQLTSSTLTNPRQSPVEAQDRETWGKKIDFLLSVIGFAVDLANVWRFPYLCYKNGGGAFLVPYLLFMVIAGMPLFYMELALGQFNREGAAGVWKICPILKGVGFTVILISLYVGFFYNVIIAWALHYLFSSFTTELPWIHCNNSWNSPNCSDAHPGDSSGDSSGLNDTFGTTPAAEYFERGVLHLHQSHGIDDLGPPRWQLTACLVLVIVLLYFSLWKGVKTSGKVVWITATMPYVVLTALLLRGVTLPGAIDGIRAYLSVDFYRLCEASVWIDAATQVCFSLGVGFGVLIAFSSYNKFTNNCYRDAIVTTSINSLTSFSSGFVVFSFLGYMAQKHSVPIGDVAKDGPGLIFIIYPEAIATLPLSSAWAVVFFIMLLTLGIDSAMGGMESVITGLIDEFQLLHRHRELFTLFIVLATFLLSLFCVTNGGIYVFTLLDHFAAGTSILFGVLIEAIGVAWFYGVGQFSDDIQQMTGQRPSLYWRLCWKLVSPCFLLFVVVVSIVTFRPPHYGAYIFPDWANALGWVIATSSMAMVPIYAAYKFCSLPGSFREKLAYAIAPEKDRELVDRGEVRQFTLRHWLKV

[17] = system: CHO-K1; assay: Displacement of [125I]2-iodomelatonin from human recombinant melatonin receptor 1 expressed in CHOK1 cells at 10 uM after 3 hrs relative to control; format: cell-based
[18] = molecular target: 5-hydroxytryptamine receptor 1A (Homo sapiens) (UniProt P08908); assay: Displacement of [3H]8-OH-DPAT from human recombinant 5HT1A receptor expressed in CHOK1 cells at 10 uM after 60 mins relative to control; format: cell-based; settings: CHO-K1
Sequence of 5-hydroxytryptamine receptor 1A (Homo sapiens) (P08908 whole entry): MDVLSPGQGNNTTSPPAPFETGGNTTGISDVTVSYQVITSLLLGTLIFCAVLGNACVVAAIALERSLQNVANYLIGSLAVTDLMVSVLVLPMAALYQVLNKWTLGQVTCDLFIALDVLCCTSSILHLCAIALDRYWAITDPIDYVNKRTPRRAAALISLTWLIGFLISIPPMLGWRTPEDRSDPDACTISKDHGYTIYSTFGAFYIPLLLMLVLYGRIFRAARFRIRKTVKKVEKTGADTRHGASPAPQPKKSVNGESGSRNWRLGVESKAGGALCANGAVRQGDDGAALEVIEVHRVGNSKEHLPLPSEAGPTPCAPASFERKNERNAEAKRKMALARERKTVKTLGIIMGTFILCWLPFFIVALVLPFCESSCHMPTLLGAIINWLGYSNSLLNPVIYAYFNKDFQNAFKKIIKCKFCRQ

[19] = molecular target: D(4) dopamine receptor (Homo sapiens) (UniProt P21917); settings: CHO-K1, 10 uM
Sequence of D(4) dopamine receptor (Homo sapiens) (P21917 whole entry): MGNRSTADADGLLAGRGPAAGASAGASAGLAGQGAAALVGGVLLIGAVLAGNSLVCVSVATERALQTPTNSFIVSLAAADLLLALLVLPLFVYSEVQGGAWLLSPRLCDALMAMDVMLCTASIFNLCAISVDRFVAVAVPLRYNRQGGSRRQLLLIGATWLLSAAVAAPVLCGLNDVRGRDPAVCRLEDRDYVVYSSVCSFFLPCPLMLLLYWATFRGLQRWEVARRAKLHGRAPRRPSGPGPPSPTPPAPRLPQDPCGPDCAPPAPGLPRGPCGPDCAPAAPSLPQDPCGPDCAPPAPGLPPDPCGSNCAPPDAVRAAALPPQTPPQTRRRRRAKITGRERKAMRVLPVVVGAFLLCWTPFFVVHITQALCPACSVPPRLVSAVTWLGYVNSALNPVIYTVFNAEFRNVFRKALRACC

[20] = molecular target: D(2) dopamine receptor (Homo sapiens) (UniProt P14416); settings: CHO, 10 uM
Sequence of D(2) dopamine receptor (Homo sapiens) (P14416 whole entry): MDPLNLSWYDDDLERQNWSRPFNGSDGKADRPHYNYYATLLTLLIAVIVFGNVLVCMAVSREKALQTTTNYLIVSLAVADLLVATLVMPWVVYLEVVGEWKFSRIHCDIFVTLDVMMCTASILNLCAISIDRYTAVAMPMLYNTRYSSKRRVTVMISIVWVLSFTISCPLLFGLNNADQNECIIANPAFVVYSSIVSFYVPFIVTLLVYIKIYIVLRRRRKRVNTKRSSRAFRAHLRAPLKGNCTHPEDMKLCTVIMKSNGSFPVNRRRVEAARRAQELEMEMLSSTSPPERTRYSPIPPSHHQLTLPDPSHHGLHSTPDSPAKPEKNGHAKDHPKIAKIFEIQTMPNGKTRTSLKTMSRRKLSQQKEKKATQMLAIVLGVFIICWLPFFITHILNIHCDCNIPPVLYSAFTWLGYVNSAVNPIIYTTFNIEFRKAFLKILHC

[21] = molecular target: Delta-type opioid receptor (Homo sapiens) (UniProt P41143); settings: HEK293, 10 uM
Sequence of Delta-type opioid receptor (Homo sapiens) (P41143 whole entry): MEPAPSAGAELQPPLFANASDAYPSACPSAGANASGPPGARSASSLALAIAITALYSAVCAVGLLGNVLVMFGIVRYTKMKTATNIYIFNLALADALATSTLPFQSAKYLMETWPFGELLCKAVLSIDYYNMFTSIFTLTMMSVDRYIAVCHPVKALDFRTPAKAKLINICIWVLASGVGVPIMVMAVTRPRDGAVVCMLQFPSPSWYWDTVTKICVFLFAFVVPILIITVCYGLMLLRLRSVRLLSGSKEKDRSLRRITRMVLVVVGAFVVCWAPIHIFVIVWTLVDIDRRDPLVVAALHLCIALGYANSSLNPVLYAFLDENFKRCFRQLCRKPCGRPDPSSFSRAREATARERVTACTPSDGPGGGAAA

[22] = Solubility in PBS at 100 uM after 24 hrs at pH 7.4 by UPLC-MS analysis; format: physicochemical
[23] = organism: Rattus norvegicus; assay: Displacement of [3H]Rolipram from rolipram binding site in Wistar rat brain at 10 uM after 60 mins relative to control

Sequence of Gamma-aminobutyric acid type B receptor subunit 1 (Homo sapiens) (Q9UBS5 whole entry): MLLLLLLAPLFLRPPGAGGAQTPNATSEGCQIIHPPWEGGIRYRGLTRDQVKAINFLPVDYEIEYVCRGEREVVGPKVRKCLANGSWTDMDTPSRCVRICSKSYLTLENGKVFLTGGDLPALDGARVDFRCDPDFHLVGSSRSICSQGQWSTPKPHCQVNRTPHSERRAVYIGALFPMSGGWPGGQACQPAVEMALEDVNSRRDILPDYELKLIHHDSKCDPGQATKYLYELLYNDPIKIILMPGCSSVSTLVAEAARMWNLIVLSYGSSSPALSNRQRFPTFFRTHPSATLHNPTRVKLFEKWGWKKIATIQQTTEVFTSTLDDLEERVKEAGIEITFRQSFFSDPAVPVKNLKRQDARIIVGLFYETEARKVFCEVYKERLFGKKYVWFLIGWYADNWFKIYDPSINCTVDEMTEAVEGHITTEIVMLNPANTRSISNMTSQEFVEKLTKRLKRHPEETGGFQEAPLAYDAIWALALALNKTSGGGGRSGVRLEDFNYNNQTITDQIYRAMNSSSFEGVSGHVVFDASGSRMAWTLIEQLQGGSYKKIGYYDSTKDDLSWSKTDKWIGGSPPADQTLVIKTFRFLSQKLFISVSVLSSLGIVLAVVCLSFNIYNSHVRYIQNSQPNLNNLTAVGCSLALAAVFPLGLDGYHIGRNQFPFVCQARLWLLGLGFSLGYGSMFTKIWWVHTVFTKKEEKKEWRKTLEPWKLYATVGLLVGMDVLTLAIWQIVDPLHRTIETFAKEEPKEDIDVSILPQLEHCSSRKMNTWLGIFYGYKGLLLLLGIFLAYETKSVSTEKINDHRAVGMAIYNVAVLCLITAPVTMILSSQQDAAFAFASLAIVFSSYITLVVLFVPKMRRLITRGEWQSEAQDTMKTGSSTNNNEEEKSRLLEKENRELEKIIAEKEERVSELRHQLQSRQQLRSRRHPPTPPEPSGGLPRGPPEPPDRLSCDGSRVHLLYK

SMILES: C[C@H](NC[C@H](O)CP(=O)(O)CC1CCCCC1)c1ccc(Cl)c(Cl)c1
- inhibition [1]: 1%

SMILES: Nc1ncnc2c1ncn2[C@@H]1O[C@H](COP(=O)(O)CP(=O)(O)OP(=O)(O)O)[C@@H](O)[C@H]1O [DIPHOSPHOMETHYLPHOSPHONIC ACID ADENOSYL ESTER]
- IC50 [2]: 0.082 µM
- Ki [2]: 0.018 µM
- inhibition [3]: 3%

SMILES: O=C(O)/C(=C/c1c(C(=O)O)[nH]c2cc(Cl)cc(Cl)c12)c1ccccc1
- IC50 [4]: 0.022 µM
- Ki [4]: 0.021 µM
- inhibition [5]: -3%

SMILES: CCCCC/C=C\C\C=C/C=C/C=C/[C@@H](SC[C@H](N)C(=O)NCC(=O)O)[C@@H](O)CCCC(=O)O
- inhibition [6]: -10%

SMILES: O=C(/C=C/c1ccc(-c2cccnc2)cc1)NC1=NCCS1
- selectivity ratio [7]: 1.47
- EC50 [8]: 5.65 µM
- EC50 [9]: 3.85 µM

SMILES: CN1[C@@H]2CC[C@H]1C[C@@H](OC(=O)c1cc(Cl)cc(Cl)c1)C2
- inhibition [10]: 3%

SMILES: CC(C)c1ccc(/C=C/C(=O)Nc2ccccc2)cc1
- selectivity ratio [11]: 0.95
- EC50 [8]: 3.44 µM
- EC50 [9]: 3.28 µM

SMILES: N[C@@H](Cc1cc(I)c(Oc2ccc(O)c(I)c2)c(I)c1)C(=O)O
- inhibition [12]: 6%

SMILES: CC(C)c1ccc(/C=C/C(=O)Nc2nccn2C)cc1
- selectivity ratio [11]: 1.28
- EC50 [8]: 4.65 µM
- EC50 [9]: 5.97 µM

SMILES: CCCCCCCCCCCCCC(=O)O[C@@H]1[C@@H](C)[C@@]2(O)[C@@H](C=C(CO)C[C@]3(O)C(=O)C(C)=C[C@@H]23)[C@@H]2C(C)(C)[C@]12OC(C)=O [PHORBOL MYRISTATE ACETATE]
- IC50 [13]: 0.00079 µM
- Ki [13]: 0.00059 µM
- inhibition [14]: -1%

SMILES: CCCCCCCCCCCCCCCCOC[C@H](COP(=O)([O-])OCC[N+](C)(C)C)OC(C)=O
- inhibition [15]: 6%

SMILES: Fc1ccc(C(OCCN2CCN(CCCc3ccccc3)CC2)c2ccc(F)cc2)cc1
- inhibition [16]: 5%

SMILES: CC(C)c1ccc(/C=C/C(=O)NC2CCCC2)cc1
- selectivity ratio [11]: 2.07
- EC50 [8]: 59.6 µM
- EC50 [9]: 123 µM

SMILES: COc1ccc2[nH]cc(CCNC(C)=O)c2c1
- inhibition [17]: 11%

SMILES: CN1C[C@H](CNC(=O)OCc2ccccc2)C[C@@H]2c3cccc4c3c(cn4C)C[C@H]21
- inhibition [18]: -8%

SMILES: CC(C)c1ccc(/C=C/C(=O)NC2=NC(=O)CS2)cc1
- selectivity ratio [11]: 2.03
- EC50 [8]: 13.3 µM
- EC50 [9]: 27 µM

SMILES: O=C(/C=C/c1cccc(Cl)c1)NC1=NCCS1
- selectivity ratio [7]: 1.44
- EC50 [8]: 21.5 µM
- EC50 [9]: 15 µM

SMILES: O=C(CCCN1CCC2(CC1)C(=O)NCN2c1ccccc1)c1ccc(F)cc1
- inhibition [19]: -3%
- inhibition [20]: -3%

SMILES: Oc1ccc2c3c1O[C@H]1c4[nH]c5ccccc5c4C[C@@]4(O)[C@@H](C2)N(CC2CC2)CC[C@]314
- inhibition [21]: 18%

SMILES: CC(C)c1ccc(/C=C/C(=O)NC2=NCCS2)cc1
- solubility at 24 h, 100 µM [22]: < 1 µM
- selectivity ratio [11]: 21.5
- EC50 [8]: 2.35 µM
- EC50 [9]: 50.6 µM

SMILES: COc1ccc(C2CNC(=O)C2)cc1OC1CCCC1 (stereo not drawn)
- inhibition [23]: 16%
